According to patent publication US20040097594A1 (priority 1998, published 2004):

Columns and labels:
HIV-1 (strain IIIB) = assay: microbe, parasite or virus in culture; assay type: cell-based; conditions: Human immunodeficiency virus 1, 120 h; MT4 cells infected with HIV-1 strain IIIB, 5 days; lower line of each compound's entry; read-out: IC50 (MT-4 cells)
HIV-1 protease = HIV-1 protease (Human immunodeficiency virus type 1 group M subtype B, UniProt P04585); assay: biochemical; conditions: HIV-1 protease; upper line of each compound's entry; read-out: Ki (enzyme)

Row | SMILES | IC50 (HIV-1 (strain IIIB)) | Ki (HIV-1 protease)
1 | Nc1cccc(S(=O)(=O)N(C[C@@H](O)[C@H](Cc2ccccc2)NC(=O)O[C@H]2CO[C@H]3OCC[C@H]32)OC2CCCCC2)c1 [Compound 154, (3R,3aS,6aR)hexahydrofuro[2,3-b]furan-3-yl(1S,2R)-3-[[(3-aminophenyl)sulfonyl](cyclohexyloxy)amino]-1-benzyl-2-hydroxypropylcarbamate] | ≤ 100 nM | < 1 nM
2 | O=C(N[C@@H](Cc1ccccc1)[C@H](O)CN(OC1CCCCC1)S(=O)(=O)c1ccc2c(c1)OCO2)O[C@H]1CO[C@H]2OCC[C@H]21 [Compound 155, (3R,3aS,6aR)hexahydrofuro[2,3-b]furan-3-yl(1S,2R)-3-[(1,3-benzodioxol-5-ylsulfonyl)(cyclohexyloxy)amino]-1-benzyl-2-hydroxypropylcarbamate] | ≤ 100 nM | < 1 nM
3 | O=C(N[C@@H](Cc1ccccc1)[C@H](O)CN(OC1CCCCC1)S(=O)(=O)c1ccc2c(c1)OCCO2)O[C@H]1CO[C@H]2OCC[C@H]21 [Compound 156, (3R,3aS,6aR)hexahydrofuro[2,3-b]furan-3-yl(1S,2R)-1-benzyl-3-[(cyclohexyloxy)(2,3-dihydro-1,4-benzodioxin-6-ylsulfonyl)amino]-2-hydroxypropylcarbamate] | ≤ 100 nM | < 1 nM
4 | O=C(N[C@@H](Cc1ccccc1)[C@H](O)CN(OC1CCCCC1)S(=O)(=O)c1cccc(O)c1)O[C@H]1CO[C@H]2OCC[C@H]21 [Example 159, (3R,3aS,6aR)hexahydrofuro[2,3-b]furan-3-yl(1S,2R)-1-benzyl-3-{(cyclohexyloxy)[(3-hydroxyphenyl)sulfonyl]amino}-2-hydroxypropylcarbamate] | ≤ 100 nM | < 1 nM
5 | O=C(N[C@@H](Cc1ccccc1)[C@H](O)CN(OC1CCCCC1)S(=O)(=O)c1ccc(O)cc1)O[C@H]1CO[C@H]2OCC[C@H]21 [Example 160, (3R,3aS,6aR)hexahydrofuro[2,3-b]furan-3-yl(1S,2R)-1-benzyl-3-{(cyclohexyloxy)[(4-hydroxyphenyl)sulfonyl]amino}-2-hydroxypropylcarbamate] | ≤ 100 nM | < 1 nM
6 | CCC(CC)ON(C[C@@H](O)[C@H](Cc1ccccc1)NC(=O)OC(C)(C)C)S(=O)(=O)c1ccc(OC)cc1 [Example 161, tert-butyl(1S,2R)-1-benzyl-3-{(1-ethylpropoxy)[(4-methoxyphenyl)sulfonyl]amino}-2-hydroxypropylcarbamate] | > 1000 nM | 1 to 10 nM
7 | CCC(CC)ON(C[C@@H](O)[C@H](Cc1ccccc1)NC(=O)O[C@H]1CO[C@H]2OCC[C@H]21)S(=O)(=O)c1ccc2c(c1)OCO2 [Example 162, (3R,3aS,6aR)hexahydrofuro[2,3-b]furan-3-yl(1S,2R)-3-[(1,3-benzodioxol-5-ylsulfonyl)(1-ethylpropoxy)amino]-1-benzyl-2-hydroxypropylcarbamate] | ≤ 100 nM | < 1 nM
8 | CCC(CC)ON(C[C@@H](O)[C@H](Cc1ccccc1)NC(=O)O[C@H]1CO[C@H]2OCC[C@H]21)S(=O)(=O)c1ccc(N)cc1 [Example 163, (3R,3aS,6aR)hexahydrofuro[2,3-b]furan-3-yl(1S,2R)-3-[[(4-aminophenyl)sulfonyl](1-ethylpropoxy)amino]-1-benzyl-2-hydroxypropylcarbamate] | ≤ 100 nM | < 1 nM
9 | CCC(CC)ON(C[C@@H](O)[C@H](Cc1ccccc1)NC(=O)O[C@H]1CO[C@H]2OCC[C@H]21)S(=O)(=O)c1cccc(N)c1 [Example 164, (3R,3aS,6aR)hexahydrofuro[2,3-b]furan-3-yl(1S,2R)-3-[[(3-aminophenyl)sulfonyl](1-ethylpropoxy)amino]-1-benzyl-2-hydroxypropylcarbamate] | ≤ 100 nM | < 1 nM
10 | CCC(CC)ON(C[C@@H](O)[C@H](Cc1ccccc1)NC(=O)O[C@H]1CO[C@H]2OCC[C@H]21)S(=O)(=O)c1ccc(O)cc1 [Example 166, (3R,3aS,6aR)hexahydrofuro[2,3-b]furan-3-yl(1S,2R)-1-benzyl-3-{(1-ethylpropoxy)[(4-hydroxyphenyl)sulfonyl]amino}-2-hydroxypropylcarbamate] | ≤ 100 nM | < 1 nM
11 | CNC(=O)CNC(=O)NCCNc1cccc(S(=O)(=O)N(CC(O)C(Cc2ccccc2)NC(=O)OC2COC3OCCC23)OC2CCCC2)c1 [Example 167, (3R,3aS,6aR)hexahydrofuro[2,3-b]furan-3-yl N-[(1S,2R)-1-benzyl-3-((cyclopentyloxy)[3-([(2-[methylamino]-2-oxoethylamino)carbonylamino]ethylamino)phenyl]sulfonylamino)-2-hydroxypropyl]carbamate and (3S,3aR,6aS)hexahydrofuro[2,3-b]furan-3-yl N-[(1S,2R)-1-benzyl-3-((cyclopentyloxy)[3-([2-[methylamino)-2-oxoethylamino)carbonylamino]ethylamino)phenyl]sulfonylamino)-2-hydroxypropyl]carbamate] | 100 to 500 nM | < 1 nM
12 | Nc1ccc(S(=O)(=O)N(CC(O)C(Cc2ccccc2)NC(=O)OC2COC3OCCC23)OC2CCCC2)cc1 [Example 171, (3R,3aS,6aR)hexahydrofuro[2,3-b]furan-3-yl N-(1S,2R)-3-[[(4-aminophenyl)sulfonyl](cyclopentyloxy)amino]-1-benzyl-2-hydroxypropyl carbamate] | ≤ 100 nM | < 1 nM
13 | NC(=O)c1cccc(S(=O)(=O)N(C[C@@H](O)[C@H](Cc2ccccc2)NC(=O)O[C@H]2CO[C@H]3OCC[C@H]32)OC2CCCC2)c1 [Example 173, (3R,3aS,6aR)hexahydrofuro[2,3-b]furan-3-yl N-(1S,2R)-3[[(3-carbamoylphenyl)sulfonyl](cyclopentyloxy)amino]-1-benzyl-2-hydroxypropyl carbamate] | ≤ 100 nM | < 1 nM
